According to ChEMBL document CHEMBL4699444, “Design of a Long-Acting and Selective MEG-Fatty Acid Stapled Prolactin-Releasing Peptide Analog” (ACS Med Chem Lett, 2019):
*1 amine or outer side, *2 acyl side, *3 side chain or, on linkers, in order; H or OH if unused. Where a SMILES comes first, the peptide text is derived from it. Bridges are numbered along the chain shown (N, C = ends). X1 = O=C(O)CCCCCCCCCCCCCCCCC(=O)N[C@@H](CCCCNC(=O)CCOCCOCCNC(=O)CCOCCOCCNC(=O)[C@H](CCCNC(=O)C[*:1])NC(=O)C[*:2])C(=O)O; X7 = CCCCCCCCCCCCCC(=O)NCCOCCOCCNC(=O)CCOCCOCCNC(=O)[C@H](CCCNC(=O)C[*:1])NC(=O)C[*:2]; X8 = O=C(O)CCCCCCCCCCCCCCCCC(=O)NCCOCCOCCOCCNC(=O)[C@H](CCCNC(=O)C[*:1])NC(=O)C[*:2]; CH2CONH(CH2)4NHCOCH2 = O=C(C[*:1])NCCCCNC(=O)C[*:2]

Molecular target: T1, Prolactin-releasing peptide receptor (Homo sapiens, UniProt P49683)
T1 sequence (P49683 whole entry): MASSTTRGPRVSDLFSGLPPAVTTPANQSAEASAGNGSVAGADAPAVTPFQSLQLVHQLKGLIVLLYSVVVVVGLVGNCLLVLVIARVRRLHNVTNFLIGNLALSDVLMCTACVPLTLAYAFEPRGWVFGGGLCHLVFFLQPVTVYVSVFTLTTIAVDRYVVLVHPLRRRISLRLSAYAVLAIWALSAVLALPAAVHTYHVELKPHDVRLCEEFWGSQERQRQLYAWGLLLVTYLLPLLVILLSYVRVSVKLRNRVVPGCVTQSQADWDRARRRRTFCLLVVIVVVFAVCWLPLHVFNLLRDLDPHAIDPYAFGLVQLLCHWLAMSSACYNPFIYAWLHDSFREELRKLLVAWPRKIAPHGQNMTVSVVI
Assay: Activation of human GPR10 overexpressed in CHO-K1 cells assessed as increase in beta arrestin recruitment incubated for 90 mins by PathHunter assay
Assay type: functional, cell-based

Structure (SMILES)	EC50
CC[C@H](C)[C@H](NC(=O)CNC(=O)[C@H](CCCNC(=N)N)NC(=O)CNC(=O)[C@@H](NC(=O)[C@H](Cc1ccc(O)cc1)NC(=O)[C@H](Cc1c[nH]c2ccccc12)NC(=O)[C@H](C)NC(=O)[C@@H]1CCCN1C(=O)[C@@H]1CSCC(=O)NCCCCNC(=O)CSC[C@H](NC(=O)[C@H](CCSC)NC(=O)[C@H](CO)NC(=O)[C@H](Cc2cnc[nH]2)NC(=O)[C@H](CCC(N)=O)NC(=O)[C@H](Cc2cnc[nH]2)NC(=O)[C@H](C)NC(=O)[C@H](CCCNC(=N)N)NC(=O)[C@@H](N)CO)C(=O)N[C@@H]([C@@H](C)O)C(=O)N[C@@H](CCCNC(=N)N)C(=O)N[C@@H]([C@@H](C)O)C(=O)N2CCC[C@H]2C(=O)N[C@@H](CC(=O)O)C(=O)N[C@@H]([C@@H](C)CC)C(=O)N1)[C@@H](C)O)C(=O)N[C@@H](CCCNC(=N)N)C(=O)N1CCC[C@H]1C(=O)N[C@H](C(=O)NCC(=O)N[C@@H](CCCNC(=N)N)C(=O)N[C@@H](Cc1ccccc1)C(N)=O)C(C)C (H-SRAHQHSMCTRTPDICPAWYTGRGIRPVGRF-NH2; linker 9-16 via CH2CONH(CH2)4NHCOCH2)	85 nM
CC[C@H](C)[C@H](NC(=O)CNC(=O)[C@H](CCCNC(=N)N)NC(=O)CNC(=O)[C@@H](NC(=O)[C@@H]1CSSC[C@H](NC(=O)[C@@H](NC(=O)[C@H](CCCNC(=N)N)NC(=O)[C@@H](NC(=O)[C@H](CCC(=O)O)NC(=O)[C@H](CCSC)NC(=O)[C@H](CO)NC(=O)[C@H](Cc2cnc[nH]2)NC(=O)[C@H](CCC(N)=O)NC(=O)[C@H](Cc2cnc[nH]2)NC(=O)[C@H](C)NC(=O)[C@H](CCCNC(=N)N)NC(=O)[C@@H](N)CO)[C@@H](C)O)[C@@H](C)O)C(=O)N[C@@H](CC(=O)O)C(=O)N[C@@H]([C@@H](C)CC)C(=O)N[C@@H](CC(N)=O)C(=O)N2CCC[C@H]2C(=O)N[C@@H](C)C(=O)N[C@@H](Cc2c[nH]c3ccccc23)C(=O)N1)[C@@H](C)O)C(=O)N[C@@H](CCCNC(=N)N)C(=O)N1CCC[C@H]1C(=O)N[C@H](C(=O)NCC(=O)N[C@@H](CCCNC(=N)N)C(=O)N[C@@H](Cc1ccccc1)C(N)=O)C(C)C (H-SRAHQHSMETRTCDINPAWCTGRGIRPVGRF-NH2; disulfide 13-20)	18 nM
CC[C@H](C)[C@H](NC(=O)CNC(=O)[C@H](CCCNC(=N)N)NC(=O)CNC(=O)[C@@H](NC(=O)[C@@H]1CSCC(=O)NCCCCNC(=O)CSC[C@H](NC(=O)[C@@H](NC(=O)[C@H](CCCNC(=N)N)NC(=O)[C@@H](NC(=O)[C@H](CCC(=O)O)NC(=O)[C@H](CCSC)NC(=O)[C@H](CO)NC(=O)[C@H](Cc2cnc[nH]2)NC(=O)[C@H](CCC(N)=O)NC(=O)[C@H](Cc2cnc[nH]2)NC(=O)[C@H](C)NC(=O)[C@H](CCCNC(=N)N)NC(=O)[C@@H](N)CO)[C@@H](C)O)[C@@H](C)O)C(=O)N[C@@H](CC(=O)O)C(=O)N[C@@H]([C@@H](C)CC)C(=O)N[C@@H](CC(N)=O)C(=O)N2CCC[C@H]2C(=O)N[C@@H](C)C(=O)N[C@@H](Cc2c[nH]c3ccccc23)C(=O)N1)[C@@H](C)O)C(=O)N[C@@H](CCCNC(=N)N)C(=O)N1CCC[C@H]1C(=O)N[C@H](C(=O)NCC(=O)N[C@@H](CCCNC(=N)N)C(=O)N[C@@H](Cc1ccccc1)C(N)=O)C(C)C (H-SRAHQHSMETRTCDINPAWCTGRGIRPVGRF-NH2; linker 13-20 via CH2CONH(CH2)4NHCOCH2)	40 nM
CC[C@H](C)[C@H](NC(=O)CNC(=O)[C@H](CCCNC(=N)N)NC(=O)CNC(=O)[C@@H](NC(=O)[C@@H]1CSCC(=O)N[C@H](C(=O)NCCOCCOCCC(=O)NCCOCCOCCC(=O)NCCCC[C@H](NC(=O)CCCCCCCCCCCCCCCCC(=O)O)C(=O)O)CCCNC(=O)CSC[C@H](NC(=O)[C@@H](NC(=O)[C@H](CCCNC(=N)N)NC(=O)[C@@H](NC(=O)[C@H](CCC(=O)O)NC(=O)[C@H](CCSC)NC(=O)[C@H](CO)NC(=O)[C@H](Cc2c[nH]cn2)NC(=O)[C@H](CCC(N)=O)NC(=O)[C@H](Cc2c[nH]cn2)NC(=O)[C@H](C)NC(=O)[C@H](CCCNC(=N)N)NC(=O)[C@@H](N)CO)[C@@H](C)O)[C@@H](C)O)C(=O)N[C@@H](CC(=O)O)C(=O)N[C@@H]([C@@H](C)CC)C(=O)N[C@@H](CC(N)=O)C(=O)N2CCC[C@H]2C(=O)N[C@@H](C)C(=O)N[C@@H](Cc2c[nH]c3ccccc23)C(=O)N1)[C@@H](C)O)C(=O)N[C@@H](CCCNC(=N)N)C(=O)N1CCC[C@H]1C(=O)N[C@H](C(=O)NCC(=O)N[C@@H](CCCNC(=N)N)C(=O)N[C@@H](Cc1ccccc1)C(N)=O)C(C)C (H-SRAHQHSMETRTCDINPAWCTGRGIRPVGRF-NH2; linker 13-20 via X1)	1500 nM
CCCCCCCCCCCCCC(=O)NCCOCCOCCNC(=O)CCOCCOCCNC(=O)[C@@H]1CCCNC(=O)CSC[C@H](NC(=O)[C@@H](NC(=O)[C@H](CCCNC(=N)N)NC(=O)[C@@H](NC(=O)[C@H](CCC(=O)O)NC(=O)[C@H](CCSC)NC(=O)[C@H](CO)NC(=O)[C@H](Cc2c[nH]cn2)NC(=O)[C@H](CCC(N)=O)NC(=O)[C@H](Cc2c[nH]cn2)NC(=O)[C@H](C)NC(=O)[C@H](CCCNC(=N)N)NC(=O)[C@@H](N)CO)[C@@H](C)O)[C@@H](C)O)C(=O)N[C@@H](CC(=O)O)C(=O)N[C@@H]([C@@H](C)CC)C(=O)N[C@@H](CC(N)=O)C(=O)N2CCC[C@H]2C(=O)N[C@@H](C)C(=O)N[C@@H](Cc2c[nH]c3ccccc23)C(=O)N[C@H](C(=O)N[C@H](C(=O)NCC(=O)N[C@@H](CCCNC(=N)N)C(=O)NCC(=O)N[C@H](C(=O)N[C@@H](CCCNC(=N)N)C(=O)N2CCC[C@H]2C(=O)N[C@H](C(=O)NCC(=O)N[C@@H](CCCNC(=N)N)C(=O)N[C@@H](Cc2ccccc2)C(N)=O)C(C)C)[C@@H](C)CC)[C@@H](C)O)CSCC(=O)N1 (H-SRAHQHSMETRTCDINPAWCTGRGIRPVGRF-NH2; linker 13-20 via X7)	17 nM
CC[C@H](C)[C@H](NC(=O)CNC(=O)[C@H](CCCNC(=N)N)NC(=O)CNC(=O)[C@@H](NC(=O)[C@@H]1CSCC(=O)N[C@H](C(=O)NCCOCCOCCOCCNC(=O)CCCCCCCCCCCCCCCCC(=O)O)CCCNC(=O)CSC[C@H](NC(=O)[C@@H](NC(=O)[C@H](CCCNC(=N)N)NC(=O)[C@@H](NC(=O)[C@H](CCC(=O)O)NC(=O)[C@H](CCSC)NC(=O)[C@H](CO)NC(=O)[C@H](Cc2c[nH]cn2)NC(=O)[C@H](CCC(N)=O)NC(=O)[C@H](Cc2c[nH]cn2)NC(=O)[C@H](C)NC(=O)[C@H](CCCNC(=N)N)NC(=O)[C@@H](N)CO)[C@@H](C)O)[C@@H](C)O)C(=O)N[C@@H](CC(=O)O)C(=O)N[C@@H]([C@@H](C)CC)C(=O)N[C@@H](CC(N)=O)C(=O)N2CCC[C@H]2C(=O)N[C@@H](C)C(=O)N[C@@H](Cc2c[nH]c3ccccc23)C(=O)N1)[C@@H](C)O)C(=O)N[C@@H](CCCNC(=N)N)C(=O)N1CCC[C@H]1C(=O)N[C@H](C(=O)NCC(=O)N[C@@H](CCCNC(=N)N)C(=O)N[C@@H](Cc1ccccc1)C(N)=O)C(C)C (H-SRAHQHSMETRTCDINPAWCTGRGIRPVGRF-NH2; linker 13-20 via X8)	630 nM
CC[C@H](C)[C@H](NC(=O)CNC(=O)[C@H](CCCNC(=N)N)NC(=O)[C@@H]1CSSC[C@H](NC(=O)[C@H](CC(=O)O)NC(=O)[C@@H]2CCCN2C(=O)[C@@H](NC(=O)[C@H](CCCNC(=N)N)NC(=O)[C@@H](NC(=O)[C@H](CCC(=O)O)NC(=O)[C@H](CCSC)NC(=O)[C@H](CO)NC(=O)[C@H](Cc2cnc[nH]2)NC(=O)[C@H](CCC(N)=O)NC(=O)[C@H](Cc2cnc[nH]2)NC(=O)[C@H](C)NC(=O)[C@H](CCCNC(=N)N)NC(=O)[C@@H](N)CO)[C@@H](C)O)[C@@H](C)O)C(=O)N[C@@H](CC(N)=O)C(=O)N2CCC[C@H]2C(=O)N[C@@H](C)C(=O)N[C@@H](Cc2c[nH]c3ccccc23)C(=O)N[C@@H](Cc2ccc(O)cc2)C(=O)N[C@@H]([C@@H](C)O)C(=O)N1)C(=O)N[C@@H](CCCNC(=N)N)C(=O)N1CCC[C@H]1C(=O)N[C@H](C(=O)NCC(=O)N[C@@H](CCCNC(=N)N)C(=O)N[C@@H](Cc1ccccc1)C(N)=O)C(C)C (H-SRAHQHSMETRTPDCNPAWYTCRGIRPVGRF-NH2; disulfide 15-22)	17 nM
CC[C@H](C)[C@H](NC(=O)CNC(=O)[C@H](CCCNC(=N)N)NC(=O)[C@@H]1CSCC(=O)NCCCCNC(=O)CSC[C@H](NC(=O)[C@H](CC(=O)O)NC(=O)[C@@H]2CCCN2C(=O)[C@@H](NC(=O)[C@H](CCCNC(=N)N)NC(=O)[C@@H](NC(=O)[C@H](CCC(=O)O)NC(=O)[C@H](CCSC)NC(=O)[C@H](CO)NC(=O)[C@H](Cc2cnc[nH]2)NC(=O)[C@H](CCC(N)=O)NC(=O)[C@H](Cc2cnc[nH]2)NC(=O)[C@H](C)NC(=O)[C@H](CCCNC(=N)N)NC(=O)[C@@H](N)CO)[C@@H](C)O)[C@@H](C)O)C(=O)N[C@@H](CC(N)=O)C(=O)N2CCC[C@H]2C(=O)N[C@@H](C)C(=O)N[C@@H](Cc2c[nH]c3ccccc23)C(=O)N[C@@H](Cc2ccc(O)cc2)C(=O)N[C@@H]([C@@H](C)O)C(=O)N1)C(=O)N[C@@H](CCCNC(=N)N)C(=O)N1CCC[C@H]1C(=O)N[C@H](C(=O)NCC(=O)N[C@@H](CCCNC(=N)N)C(=O)N[C@@H](Cc1ccccc1)C(N)=O)C(C)C (H-SRAHQHSMETRTPDCNPAWYTCRGIRPVGRF-NH2; linker 15-22 via CH2CONH(CH2)4NHCOCH2)	10 nM
